Experimental data published in US7989466B2, “Methods to inhibit or augment an inflammatory response” (Cambridge Enterprise Limited, priority 1999, dated 2011).
≈ marks a conversion by molar mass, not a printed value. Positions of bridges follow the written chain, without caps; N, C: chain ends. Non-standard residues stand in square brackets, D forms with d. Residues, ends and D or L forms follow the SMILES beside them.

Key:
[1] = tested on: chemokine induced calcium flux; assay: Intracellular calcium flux in THP-1 cells (Fura2); type: cell-based, human
Experimental: CRD-Leu4Ile11Cys13 peptide 3(3-12)[MCP-1] at 6.7 μg/ml was incubated with THP-1 cells (2×10^6 cells/ml) for 25 minutes prior to exposure to agonist (10 ng/ml) and measurement of flux. The second exposure to agonist is 2 minutes later. Fluorescence is measured at 510 nm.
Monocytes, eosinophils, neutrophils and lymphocytes loaded with Fura-2 (0.1 nmol/10^5 cells) are stimulated with a chemokine in the presence or absence of the therapeutic agent, and [Ca^2+]i-related fluorescence changes are recorded (Von Tschanner et al., Nature, 324, 369 (1986)). […] The Fura-2 fluorescence of the monocyte suspension is measured at 37° C. in a single excitation, single emission (500 nm) wavelength Perkin-Elmer LS5 fluorometer. [Ca^2+]i is calculated from changes in fluorescence measured at a single excitation wavelength of 340 nm.
After peptide 3 binds to its receptor, it may block proteins required to effect the response (e.g., block specific integrins needed for chemokine-induced migration but not fNLP or TGFb induced migration), down regulate a chemokine receptor, or interfere with signal transduction mechanisms. Interference with signal transduction mechanisms can be detected in either a direct or indirect manner (for example, using assays for measuring intracellular calcium flux, cAMP, pI3, kinase activity, and DAG).

[2] = Competition of 125I-MCP-1 binding to heparin-coated agarose beads; conditions: 10^−11 to 10^−4 M
Source text: Chemokines bind to glycosaminoglycans on the cell surface, which may facilitate chemokine receptor binding and subsequent signaling. […] This was followed by a monophasic displacement curve at concentrations of approximately 10^−7 to 10^−5 M MCP-1.

[3] = target: T1, 5-HT1a receptors (Homo sapiens, UniProt P08908); assay: 5HT1a serotonin receptor membrane binding (3H-8-OH-DPAT)
T1 construct: purchased RBI/Sigma S-160
Experimental: For 5HT1a serotonin receptors, membranes (S-160, RBI/Sigma) are diluted into binding buffer (50 mM Tris pH 7.4 10 mM MgCl2 and 0.5 mM EDTA, with ascorbate at 1 mg/ml added immediately before use), e.g., 10 μl of membranes in 500 μl assay volume (i.e., 1:50 dilution). Cold competitor or test competitor is then added, e.g., 5 μl of 100× stock solution such as 5 μl of 1 mM oxymetazoline. […] The tubes are vortexed then spun briefly. The mixtures are incubated for 1 hour at 4° C. The mixtures are filtered through GF/C filters pre-soaked in polyethyleneimine (0.3% in MilliQ water). The tubes are washed with 2-3 ml of wash buffer and filtered. The filter is washed with 3×5 ml of wash buffer, and air dried. 4.5 ml of scintillant is added to the dried filter in a scintillation vial and the filter counted on a tritium channel.

[4] = target: T2, short splice variant D2 dopamine receptor (Homo sapiens, UniProt P14416); assay: Dopamine receptor membrane binding (3H-Spiperone); conditions: 100 μM highest concentration tested; read-out: ED50 for competition of spiperone binding to short splice variant D2 dopamine receptor
T2 construct: purchased RBI/Sigma D-179
Experimental: For dopamine receptor binding, membranes (D-179, RBI/Sigma) are diluted into binding buffer (75 mM Tris pH 7.4, 12.5 mM MgCl2 and 2 mM EDTA). For example, 10 μl of membranes are diluted in 500 μl of binding buffer (i.e., 1:50 dilution), which is aliquoted into labelled tubes. Cold competitor or test competitor is added, (e.g., 5 μl of 100× stock solution; 5 μl of 1 mM haloperidol solution (H-100, RBI/Sigma in DMSO). Radioligand is then added (3H-Spiperone, TRK 818, Amersham, 250 μCi in 250 μl, 10.5 μM at 95 Ci/mmol). For competition studies, 0.5 nM is used. A 100× stock (i.e., 50 nM) is made by diluting the commercial stock 1:210 in binding buffer, and 5 μl is added to every tube. Control tubes have radioligand but no membranes. The mixtures are vortexed, then spun very briefly. The mixtures are then incubated for 1 hour at 27° C. in a water bath. The mixture is filtered through GF/C filters over a vacuum. Each filter is pre-soaked in polyethyleneimine (0.3% in water; add 1 ml of 10% stock (P-261; RBI/Sigma) to 33 ml of MilliQ water). The tubes are washed with 2-3 ml of wash buffer (50 mM Tris pH 7.4) and the wash filtered. The filters are then rinsed with 3×5 ml of wash buffer, air dried, placed in a scintillation vial and 4.5 ml of scintillant added. The activity on the filter is then determined.

[5] = physchem

T1 sequence (P08908 whole entry): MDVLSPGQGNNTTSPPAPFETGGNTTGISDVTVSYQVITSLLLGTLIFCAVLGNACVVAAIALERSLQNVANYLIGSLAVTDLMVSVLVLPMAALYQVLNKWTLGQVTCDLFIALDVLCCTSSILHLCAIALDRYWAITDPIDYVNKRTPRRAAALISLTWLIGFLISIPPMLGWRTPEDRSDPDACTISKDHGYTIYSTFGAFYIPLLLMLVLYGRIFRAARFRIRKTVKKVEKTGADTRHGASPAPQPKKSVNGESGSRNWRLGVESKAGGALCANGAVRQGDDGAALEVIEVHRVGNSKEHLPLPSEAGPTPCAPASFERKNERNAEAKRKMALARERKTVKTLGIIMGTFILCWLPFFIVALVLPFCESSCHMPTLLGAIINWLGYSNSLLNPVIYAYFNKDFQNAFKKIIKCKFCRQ
T2 sequence (P14416 1-414 isoform P14416-2): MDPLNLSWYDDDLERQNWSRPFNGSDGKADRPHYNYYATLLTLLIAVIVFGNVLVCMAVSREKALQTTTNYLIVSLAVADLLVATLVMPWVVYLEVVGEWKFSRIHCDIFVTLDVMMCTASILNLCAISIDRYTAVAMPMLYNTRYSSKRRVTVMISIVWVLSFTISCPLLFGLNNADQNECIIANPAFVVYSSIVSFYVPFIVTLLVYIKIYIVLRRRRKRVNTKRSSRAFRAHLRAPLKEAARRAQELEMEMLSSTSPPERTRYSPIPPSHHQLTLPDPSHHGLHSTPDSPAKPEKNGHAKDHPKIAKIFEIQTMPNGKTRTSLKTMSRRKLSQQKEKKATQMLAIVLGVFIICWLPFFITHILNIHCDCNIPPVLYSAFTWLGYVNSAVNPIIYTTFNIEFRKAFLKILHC

| Compound | effect on MCP-1 induced calcium flux [1] | effect on SDF-1 induced calcium flux [1] | displacement of 125I-MCP-1 from heparin-coated agarose beads [2] | selectivity for MCP-1 inhibition over serotonin receptor binding [3] | EC50 ([3]; 100 μM highest concentration tested) [µM] | EC50 [4] [µM] | pKa [5] | solubility ([5]; organic solvent or mixture) [µg/mL] | solubility ([5]; pH 11, water) [µg/mL] |
| --- | --- | --- | --- | --- | --- | --- | --- | --- | --- |
| CC[C@@H](C)[C@H]1NC(=O)[C@@H](CCC(N)=O)NC(=O)[C@H](N)CSSC[C@H](C(N)=O)NC(=O)[C@@H](CC(C)C)NC(=O)[C@@H](CC(=O)O)NC(=O)[C@H]2CCCN2C(=O)[C@@H](CCCCN)NC(=O)[C@@H](CCC(N)=O)NC(=O)[C@@H](CCCCN)NC(=O)[C@@H](Cc2c[nH]c3ccccc23)NC1=O (H-[dC][dQ][dI][dW][dK][dQ][dK][dP][dD][dL][dC]-NH2; disulfide 1-11; N-terminus assumed) | did not block | did block | did not result in displacement |  |  |  |  |  |  |
| C=CCCCCCCCCC(=O)N[C@H]1CCC(=O)NC1=O [A-I (NR58.4), [3S]-3-(undec-10-enoylamino)piperidine-2,6-dione] |  |  |  | approximately 40,000 fold | 80 | > 100 | ~11 | > 200000 | 5000 (≈ 17 mM) |
